Activity calls are given as the source filed them. No cut-off for these calls is given here.
How the values were obtained:
[1] = target: Dual specificity protein kinase CLK2 (Homo sapiens) (UniProt P49760); test: Inhibition of CLK2 (unknown origin) at 10 uM by Ambit Kinomescan binding assay
[2] = target: T1, Ephrin type-B receptor 4 (Homo sapiens) (UniProt P54760); test: Inhibition of EPHB4 (unknown origin) at 10 uM by Ambit Kinomescan binding assay
T1 sequence (whole entry): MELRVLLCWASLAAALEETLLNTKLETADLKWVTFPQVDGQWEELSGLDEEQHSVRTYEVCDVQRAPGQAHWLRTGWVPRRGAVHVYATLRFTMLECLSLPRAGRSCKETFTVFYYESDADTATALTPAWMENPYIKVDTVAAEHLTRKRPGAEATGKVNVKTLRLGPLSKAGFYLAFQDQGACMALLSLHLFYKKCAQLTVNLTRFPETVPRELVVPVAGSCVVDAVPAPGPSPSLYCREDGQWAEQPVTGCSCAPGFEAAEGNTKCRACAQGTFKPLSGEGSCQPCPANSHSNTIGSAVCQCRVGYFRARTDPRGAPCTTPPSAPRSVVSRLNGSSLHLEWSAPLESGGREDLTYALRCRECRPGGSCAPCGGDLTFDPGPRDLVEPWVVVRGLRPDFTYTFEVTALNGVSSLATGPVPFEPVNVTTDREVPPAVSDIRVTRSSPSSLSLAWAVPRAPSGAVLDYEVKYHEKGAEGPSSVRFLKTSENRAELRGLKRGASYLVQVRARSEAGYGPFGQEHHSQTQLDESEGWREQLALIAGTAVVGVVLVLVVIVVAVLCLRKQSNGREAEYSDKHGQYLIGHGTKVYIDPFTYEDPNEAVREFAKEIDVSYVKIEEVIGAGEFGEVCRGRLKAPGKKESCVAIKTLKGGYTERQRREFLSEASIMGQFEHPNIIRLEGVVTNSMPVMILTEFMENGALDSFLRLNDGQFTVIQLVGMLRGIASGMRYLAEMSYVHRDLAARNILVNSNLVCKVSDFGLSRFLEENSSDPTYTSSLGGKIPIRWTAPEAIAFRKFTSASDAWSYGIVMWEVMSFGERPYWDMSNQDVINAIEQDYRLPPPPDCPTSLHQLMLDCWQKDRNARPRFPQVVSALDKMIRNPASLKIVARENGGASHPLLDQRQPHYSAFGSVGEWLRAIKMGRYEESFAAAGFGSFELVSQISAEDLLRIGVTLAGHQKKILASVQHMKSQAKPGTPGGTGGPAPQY

[3] = target: T2, Inhibitor of nuclear factor kappa-B kinase subunit epsilon (Homo sapiens) (UniProt Q14164); test: Inhibition of IKK-epsilon (unknown origin) at 10 uM by Ambit Kinomescan binding assay
T2 sequence (whole entry): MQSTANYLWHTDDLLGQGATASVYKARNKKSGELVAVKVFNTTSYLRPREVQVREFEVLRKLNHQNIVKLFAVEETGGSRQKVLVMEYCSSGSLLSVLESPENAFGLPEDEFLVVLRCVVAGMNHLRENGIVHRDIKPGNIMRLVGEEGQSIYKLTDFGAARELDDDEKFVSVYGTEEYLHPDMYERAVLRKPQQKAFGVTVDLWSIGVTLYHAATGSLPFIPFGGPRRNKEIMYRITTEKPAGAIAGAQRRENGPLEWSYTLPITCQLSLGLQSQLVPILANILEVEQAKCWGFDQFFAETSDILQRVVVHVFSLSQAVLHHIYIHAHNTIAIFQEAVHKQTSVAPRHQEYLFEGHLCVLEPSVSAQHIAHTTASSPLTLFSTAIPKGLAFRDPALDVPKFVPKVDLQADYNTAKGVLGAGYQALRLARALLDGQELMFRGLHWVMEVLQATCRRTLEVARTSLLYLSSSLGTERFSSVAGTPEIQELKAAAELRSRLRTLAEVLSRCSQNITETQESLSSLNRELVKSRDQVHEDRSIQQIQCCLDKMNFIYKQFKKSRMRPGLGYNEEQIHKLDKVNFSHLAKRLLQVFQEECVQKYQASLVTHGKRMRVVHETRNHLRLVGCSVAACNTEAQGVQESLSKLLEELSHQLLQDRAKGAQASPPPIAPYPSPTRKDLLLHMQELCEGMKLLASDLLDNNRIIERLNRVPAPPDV

[4] = target: Serine/threonine-protein kinase Nek2 (Homo sapiens) (UniProt P51955); test: Inhibition of NEK2 (unknown origin) at 10 uM by Ambit Kinomescan binding assay
[5] = target: Serine/threonine-protein kinase RIO1 (Homo sapiens) (UniProt Q9BRS2); test: Inhibition of RIOK1 (unknown origin) at 10 uM by Ambit Kinomescan binding assay
[6] = target: T3, EKC/KEOPS complex subunit TP53RK (Homo sapiens) (UniProt Q96S44); test: Inhibition of PRPK ATP labeling site in human Huh-7 cell lysate at 1 uM by KiNativ Profiling analysis relative to control; assay type: subcellular
T3 sequence (whole entry): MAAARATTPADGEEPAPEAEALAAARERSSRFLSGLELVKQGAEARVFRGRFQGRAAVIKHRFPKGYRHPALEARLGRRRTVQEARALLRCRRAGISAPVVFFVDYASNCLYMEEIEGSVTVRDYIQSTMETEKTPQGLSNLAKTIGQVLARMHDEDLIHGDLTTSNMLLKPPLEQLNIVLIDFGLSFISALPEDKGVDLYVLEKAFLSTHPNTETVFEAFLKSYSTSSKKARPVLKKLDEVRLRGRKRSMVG

Serine/threonine-protein kinase Nek2 (Homo sapiens), sequence (P51955 whole entry): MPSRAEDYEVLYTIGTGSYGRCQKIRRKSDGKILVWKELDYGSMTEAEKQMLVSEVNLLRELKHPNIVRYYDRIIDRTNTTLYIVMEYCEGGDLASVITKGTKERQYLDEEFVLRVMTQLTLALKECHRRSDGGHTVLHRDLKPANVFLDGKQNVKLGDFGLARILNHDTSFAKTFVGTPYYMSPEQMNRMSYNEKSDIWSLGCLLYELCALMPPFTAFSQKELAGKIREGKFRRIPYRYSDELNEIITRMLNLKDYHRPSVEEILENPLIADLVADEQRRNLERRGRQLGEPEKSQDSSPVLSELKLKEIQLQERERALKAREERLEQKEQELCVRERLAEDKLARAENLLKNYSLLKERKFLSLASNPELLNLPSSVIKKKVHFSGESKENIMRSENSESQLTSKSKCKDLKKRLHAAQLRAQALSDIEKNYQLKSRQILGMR
Serine/threonine-protein kinase RIO1 (Homo sapiens), sequence (Q9BRS2 whole entry): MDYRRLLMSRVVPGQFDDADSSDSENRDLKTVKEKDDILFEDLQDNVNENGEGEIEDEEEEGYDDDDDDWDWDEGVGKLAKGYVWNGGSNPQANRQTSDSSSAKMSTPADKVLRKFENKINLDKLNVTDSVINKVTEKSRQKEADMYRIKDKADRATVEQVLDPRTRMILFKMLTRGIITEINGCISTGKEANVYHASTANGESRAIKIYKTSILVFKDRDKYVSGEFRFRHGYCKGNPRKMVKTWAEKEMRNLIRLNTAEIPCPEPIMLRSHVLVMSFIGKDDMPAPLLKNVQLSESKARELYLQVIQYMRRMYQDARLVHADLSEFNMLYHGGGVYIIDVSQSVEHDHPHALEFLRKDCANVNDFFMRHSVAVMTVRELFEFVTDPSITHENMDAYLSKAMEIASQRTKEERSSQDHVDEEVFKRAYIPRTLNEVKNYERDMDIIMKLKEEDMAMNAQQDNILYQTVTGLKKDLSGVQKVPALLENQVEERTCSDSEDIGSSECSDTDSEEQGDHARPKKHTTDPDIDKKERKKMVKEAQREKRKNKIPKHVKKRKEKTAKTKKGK
Dual specificity protein kinase CLK2 (Homo sapiens), sequence (P49760 whole entry, looked up): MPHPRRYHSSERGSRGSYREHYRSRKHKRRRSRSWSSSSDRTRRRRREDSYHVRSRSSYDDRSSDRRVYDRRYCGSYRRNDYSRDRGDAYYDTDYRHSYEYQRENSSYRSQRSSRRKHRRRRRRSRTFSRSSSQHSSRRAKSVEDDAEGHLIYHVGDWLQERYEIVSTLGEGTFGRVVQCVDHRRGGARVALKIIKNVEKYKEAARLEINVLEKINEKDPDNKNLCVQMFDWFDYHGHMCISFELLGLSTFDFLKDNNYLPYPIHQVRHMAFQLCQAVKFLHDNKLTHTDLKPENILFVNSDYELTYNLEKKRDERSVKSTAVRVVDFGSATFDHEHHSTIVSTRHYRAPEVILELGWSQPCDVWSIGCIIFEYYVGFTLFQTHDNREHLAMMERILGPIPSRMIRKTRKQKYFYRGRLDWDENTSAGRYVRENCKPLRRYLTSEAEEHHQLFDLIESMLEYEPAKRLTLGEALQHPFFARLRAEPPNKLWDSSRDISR

SMILES | inhibition [1] | inhibition [2] | inhibition [3] | inhibition [4] | inhibition [5] | inhibition [6]
CCN1CCN(Cc2ccc(NC(=O)c3ccc(C)c(Oc4ccnc5[nH]ccc45)c3)cc2C(F)(F)F)CC1 | inactive | inactive | inactive | inactive | inactive | –
CNc1cc(Oc2cc(C(=O)Nc3cc(N4CCN(C)CC4)cc(C(F)(F)F)c3)ccc2C)ncn1 | – | – | – | – | – | -6%

— ChEMBL document CHEMBL5696442, “Discovery of type II inhibitors of TGFβ-activated kinase 1 (TAK1) and mitogen-activated protein kinase kinase kinase kinase 2 (MAP4K2)” (J Med Chem, 2015)
